# Assay results reported in patent US20130184308A1, “ACTIVATED BLOOD COAGULATION FACTOR X (FXa) INHIBITOR” (DAIICHI SANKYO COMPANY, LIMITED, priority 2008, published 2013).
# Where two headings read alike, the source gives them in different places.
# Legend:
# F1+2, TAT, D-dimer [1] = details: atrial fibrillation patients; anticoagulant therapy (N. Vene et al., Thromb Haemost 2003); cited from earlier work
# bleeding events [2] = test system: bleeding events
# Experimental: (§1) Moreover, secondary evaluations were performed for efficacy by the comparison of the incidence of thromboembolic events, pharmacodynamic indexes, and biomarkers, and for safety by the comparison of the incidences of adverse events and adverse reactions. […] In the group to which warfarin was administered, 0.5-mg and 1-mg warfarin tablets were used and orally administered once a day for 12 weeks as a rule at a dose that allowed PT-INR to be controlled to between 2.0 and 3.0 inclusive (for 70-year-old or older participants, between 1.6 and 2.6 inclusive).
# (§2) The clinical trial was carried out by, after obtaining the consent of test subjects, conducting head diagnostic imaging before registration to confirm no bleeding observation, and conducting head diagnostic imaging (CT or MRI), transthoracic echocardiography, lead electrocardiography, blood pressure examination, pulse rate examination, and hematological/biochemical tests.
# In the secondary analysis, the hypothesis (comparison) shown below was studied on the incidence of bleeding events using the one-sided Cochran-Armitage test at the 0.025 level of significance.
# This clinical trial was carried out in conformity to the standards specified by Article 14 Paragraph 3 and Article 80-2 of the Pharmaceutical Affairs Law and MHW Ordinance No. 28 “Standards for the Implementation of Clinical Trials on Pharmaceutical Products” (Mar. 27, 1997; hereinafter, referred to as the GCP ordinance). The implementation of this clinical trial conformed to the ethical research guidelines of the Declaration of Helsinki and secured the maximal human rights, welfare, and safety of the test subjects. [Protocol No. of this clinical trial: DU-176b-C-J225_Ver.03.05.000].
# F1+2, TAT, D-dimer [3] = assay: Early phase II trials: biomarkers F1+2, TAT and D-dimer; type: in vivo, human
# Description: (§3) The biomarkers F1+2 and TAT are markers of thrombin formation, while D-dimer is a marker of secondary fibrinolysis.
# bleeding events [4] = details: total knee arthroplasty patients; 5 mg to 60 mg oral once a day 11 to 14 days
# Description: The implementation of this clinical trial conformed to the ethical research guidelines of the Declaration of Helsinki and secured the maximal human rights, welfare, and safety of the test subjects.
# D-dimer = assay: Dose comparison study in non-valvular atrial fibrillation patients: biomarker D-dimer; type: in vivo, human; details: 28 days after administration
# Experimental: as §1, §2, §3
# [5] = NVAF patients, 30 mg, 45 mg, 60 mg oral once a day 12 weeks
Structure (SMILES),"levels of biomarkers F1+2, TAT and D-dimer (F1+2, TAT, D-dimer [1])",incidence of bleeding events in four groups divided by BW (60 kg) and Ccr (50) (bleeding events [2]; NVAF patients that received compound (1a)),"incidence of bleeding events (major, clinically relevant non-major, minor), dose response (bleeding events [2]; [5])",incidence of bleeding events compared with warfarin group (bleeding events [2]; [5]),"incidence of bleeding events, Ccr≦50 versus Ccr>50 (bleeding events [2]; NVAF patients, 45 mg/kg or higher (so in the source))","incidence of bleeding events, BW≦60 kg versus BW>60 kg (bleeding events [2]; NVAF patients, dose of 45 mg/kg or higher (so in the source))","levels of biomarkers F1+2, TAT and D-dimer (F1+2, TAT, D-dimer [3])",incidence of bleeding events compared with placebo group (bleeding events [4]),number of bleeding events (bleeding events [4]),"D-dimer (secondary fibrinolysis biomarker) (D-dimer; NVAF patients, compared with warfarin)","D-dimer (secondary fibrinolysis biomarker) (D-dimer; test subjects having no history of warfarin administration, compared with warfarin-administered patients)"
"CC(=O)CC(c1ccccc1)c1c(O)c2ccccc2oc1=O (centres unmarked) [warfarin, warfarin potassium]",decreased by anticoagulant therapy using warfarin,,,,,,,,,,
"CN1CCc2nc(C(=O)N[C@@H]3C[C@@H](C(=O)N(C)C)CC[C@@H]3NC(=O)C(=O)Nc3ccc(Cl)cn3)sc2C1.Cc1ccc(S(=O)(=O)O)cc1 [compound (1a), N^1-(5-chloropyridin-2-yl)-N^2-((1S,2R,4S)-4-[(dimethylamino)carbonyl]-2-{[(5-methyl-4,5,6,7-tetrahydrothiazolo[5,4-c]pyridin-2-yl)carbonyl]amino}cyclohexyl)ethanediamide p-toluenesulfonate monohydrate]",,"highest incidence of bleeding events was obtained in the group of (4) BW≦60 kg, Ccr≦50",increased as the dose of the compound (1a) got higher,no significant difference,higher in the group to which compound (1a) had been administered involving the test subjects having creatinine clearance (Ccr) of Ccr≦50,higher in the group to which compound (1a) had been administered involving the test subjects having a body weight (BW) of BW≦60 kg,reduce the levels of these biomarkers,did not differ from that in the group to which the placebo had been administered,increased in a manner dependent on the dose,comparable to that of warfarin,comparable to that of warfarin-administered patients
